Holding throughout (format): cell-based
In test [1] the test system is Ba/F3 cells expressing EGFR-wt. The test can be described thus: Growth inhibition (GI50) of Ba/F3 cells expressing EGFR-wt, Celltiter glo. Conditions: Mus musculus, BaF3, 72 h. The procedure, abridged:
(§1)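 Viability read by CellTiter-Glo after 72 h compound exposure (37 °C, 5% CO2) of variant-expressing Ba/F3 cells plated at 100,000 cells/ml. Dosing 4 h post-seeding; 10-pt 4-fold series from 2 mM stock; 0.5% DMSO. GI50 = molar concentration (μM) giving half-maximal growth inhibition.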
(ATP-based viability assays read luminescence as a measure of living cells.)

For test [2], the system named is Ba/F3 cells expressing del19/T790M/C797S (EGFR-DTC). The test can be described thus: Growth inhibition (GI50) of Ba/F3 cells expressing del19/T790M/C797S (EGFR-DTC), Celltiter glo. The note with it: Mus musculus, BaF3, 72 h. Summed up: as §1
Test [3] relates to Ba/F3 cells expressing L858R/T790M/C797S (EGFR-LTC). The test can be described thus: Growth inhibition (GI50) of Ba/F3 cells expressing L858R/T790M/C797S (EGFR-LTC), Celltiter glo. Conditions: Mus musculus, BaF3, 72 h. The procedure, abridged:
as §1

Test [4] has as its system Ba/F3 cells expressing del19/T790M (EGFR-DT). As to the kind of experiment: Growth inhibition (GI50) of Ba/F3 cells expressing del19/T790M (EGFR-DT), Celltiter glo. Conditions: Mus musculus, BaF3, 72 h. Summed up:
as §1

For test [5], the system named is Ba/F3 cells expressing L858R/T790M (EGFR-LT). As to the kind of experiment: Growth inhibition (GI50) of Ba/F3 cells expressing L858R/T790M (EGFR-LT), Celltiter glo. The note with it: Mus musculus, BaF3, 72 h. The procedure, abridged: as §1
The subject of a further test is parental Ba/F3 cell line. As to the kind of experiment: Growth inhibition (GI50) of the parental Ba/F3 cell line (not introduced with EGFR variants), Celltiter glo. Conditions: Mus musculus, BaF3, 72 h, parental Ba/F3 cells. The procedure, abridged:
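Viable cell count by CellTiter-Glo after 72 h at 37 °C gave GI50 values (μM, 50% growth inhibition). Cells lacking EGFR variants were seeded at 100,000 cells/ml and dosed 4 h later with 4-fold serial dilutions from a 2 mM stock, 0.5% DMSO.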

These results are taken from patent US20240228458A1, “PYRIMIDINE DERIVATIVE HAVING PROTEIN KINASE INHIBITORY ACTIVITY, AND THERAPEUTIC PHARMACEUTICAL COMPOSITION COMPRISING SAME” (THERAPEX CO., LTD., priority 2021, published 2024).

Molecules are shown by their SMILES.

Consider `COc1ccc(NS(C)(=O)=O)c(Nc2nc(Nc3cc(C)c(N4CCC(N5CCC(N(C)C)C5)CC4)cc3OC)ncc2Cl)c1` (stereo not drawn) [Example 235, N-(2-((5-chloro-2-((4-(4-(3-(dimethylamino)pyrrolidin-1-yl)piperidin-1-yl)-2-methoxy-5-methylphenyl)amino)pyrimidin-4-yl)amino)-4-methoxyphenyl)methanesulfonamide], for which the GI50 (commonly the concentration giving 50% growth inhibition) in test [1] lay within 0.5 to 2 µM; in test [2], 0.025 to 0.1 µM; in test [3], 0.1 to 0.5 µM; in test [4] it was 0.025 to 0.1 µM; in test [5] it was 0.1 to 0.5 µM; in the test with parental Ba/F3 cell line it was 2 to 10 µM.

For the molecule `COc1ccc(NS(C)(=O)=O)c(Nc2nc(Nc3cc(C)c(N4CCC(N5CCCC(N(C)C)C5)CC4)cc3Cl)ncc2Cl)c1` (stereo not drawn) [Example 236, N-(2-((5-chloro-2-((2-chloro-4-(3-(dimethylamino)-[1,4′-bipiperidin]-1′-yl)-5-methylphenyl)amino)pyrimidin-4-yl)amino)-4-methoxyphenyl)methanesulfonamide], the GI50 is 2 to 10 µM in test [1]; 0.1 to 0.5 µM in test [2]; 0.1 to 0.5 µM in test [3]; 0.1 to 0.5 µM in test [4]; 0.1 to 0.5 µM in test [5]; 2 to 10 µM in the test on parental Ba/F3 cell line.

For `COc1ccc(NS(C)(=O)=O)c(Nc2nc(Nc3cc(Cl)c(N4CCC(N5CCCC(N(C)C)C5)CC4)cc3OC)ncc2Cl)c1` (stereo not drawn) [Example 237, N-(2-((5-chloro-2-((5-chloro-4-(3-(dimethylamino)-[1,4′-bipiperidin]-1′-yl)-2-methoxyphenyl)amino)pyrimidin-4-yl)amino)-4-methoxyphenyl)methanesulfonamide], the GI50 lay in the range of 0.5 to 2 µM in test [1]; 0.1 to 0.5 µM in test [2]; 0.001 to 0.025 µM in test [3]; 0.1 to 0.5 µM in test [4]; 0.001 to 0.025 µM in test [5]; 2 to 10 µM with parental Ba/F3 cell line.

With `COc1nc(N2CCCN(C)CC2)ccc1Nc1ncc(Br)c(Nc2cc3c(cc2NS(C)(=O)=O)CCO3)n1` [Example 238, N-(6-((5-bromo-2-((2-methoxy-6-(4-methyl-1,4-diazepan-1-yl)pyridin-3-yl)amino)pyrimidin-4-yl)amino)-2,3-dihydrobenzofuran-5-yl)methanesulfonamide], the GI50 in test [1] lay in the range of 2 to 10 µM; in test [2], 2 to 10 µM; in test [3] it was 0.1 to 0.5 µM; in test [4] it was 2 to 10 µM; in test [5], 0.1 to 0.5 µM; with parental Ba/F3 cell line, 2 to 10 µM.

Regarding `CN1CCN(C2CCN(c3ncc(Nc4ncc(Br)c(Nc5cc6c(cc5NS(C)(=O)=O)CCO6)n4)cc3F)CC2)CC1` [Example 239, N-(6-((5-bromo-2-((5-fluoro-6-(4-(4-methylpiperazin-1-yl)piperidin-1-yl)pyridin-3-yl)amino)pyrimidin-4-yl)amino)-2,3-dihydrobenzofuran-5-yl)methanesulfonamide], the concentration for 50% growth inhibition (GI50) in test [1] was 0.5 to 2 µM; in test [2], 0.5 to 2 µM; in test [3], 0.1 to 0.5 µM; in test [4], 0.025 to 0.1 µM; in test [5], 0.025 to 0.1 µM; in the test on parental Ba/F3 cell line it was 2 to 10 µM.

On to `COc1nc(N2CCC(N3CCN(C)CC3)CC2)c(C)cc1Nc1ncc(Br)c(Nc2cc3c(cc2NS(C)(=O)=O)CCO3)n1` [Example 240, N-(6-((5-bromo-2-((2-methoxy-5-methyl-6-(4-(4-methylpiperazin-1-yl)piperidin-1-yl)pyridin-3-yl)amino)pyrimidin-4-yl)amino)-2,3-dihydrobenzofuran-5-yl)methanesulfonamide], for which the GI50 in test [1] was in the range of 0.5 to 2 µM; in test [2], 0.1 to 0.5 µM; in test [3], 0.001 to 0.025 µM; in test [4] it was 0.1 to 0.5 µM; in test [5], 0.001 to 0.025 µM; in the test with parental Ba/F3 cell line, 2 to 10 µM.

Take `COc1nc(N2CCC(N3CCN(C)CC3)CC2)c(C)cc1Nc1ncc(Cl)c(Nc2cc3c(cc2NS(C)(=O)=O)CCO3)n1` [Example 241, N-(6-((5-chloro-2-((2-methoxy-5-methyl-6-(4-(4-methylpiperazin-1-yl)piperidin-1-yl)pyridin-3-yl)amino)pyrimidin-4-yl)amino)-2,3-dihydrobenzofuran-5-yl)methanesulfonamide]: the GI50 was 0.5 to 2 µM in test [1]; 0.1 to 0.5 µM in test [2]; 0.025 to 0.1 µM in test [3]; 0.1 to 0.5 µM in test [4]; 0.001 to 0.025 µM in test [5]; 2 to 10 µM with parental Ba/F3 cell line.

Regarding `CN1CCN(C2CCN(c3ncc(Nc4ncc(Cl)c(Nc5cc6c(cc5NS(C)(=O)=O)CCO6)n4)cc3F)CC2)CC1` [Example 242, N-(6-((5-chloro-2-((5-fluoro-6-(4-(4-methylpiperazin-1-yl)piperidin-1-yl)pyridin-3-yl)amino)pyrimidin-4-yl)amino)-2,3-dihydrobenzofuran-5-yl)methanesulfonamide], the GI50 was in the range of 2 to 10 µM in test [1]; 2 to 10 µM in test [2]; 0.025 to 0.1 µM in test [3]; 0.5 to 2 µM in test [4]; 0.001 to 0.025 µM in test [5]; 2 to 10 µM in the test on parental Ba/F3 cell line.

With `COc1cc(N2CCC(N3CCN(C)CC3)CC2)ccc1Nc1ncc(Br)c(Nc2cc3c(cc2NS(C)(=O)=O)CCO3)n1` [Example 243, N-(6-((5-bromo-2-((2-methoxy-4-(4-(4-methylpiperazin-1-yl)piperidin-1-yl)phenyl)amino)pyrimidin-4-yl)amino)-2,3-dihydrobenzofuran-5-yl)methanesulfonamide], the GI50 fell in the range of 0.5 to 2 µM in test [1]; 0.1 to 0.5 µM in test [2]; 0.001 to 0.025 µM in test [3]; 0.1 to 0.5 µM in test [4]; 0.001 to 0.025 µM in test [5]; 2 to 10 µM in the test on parental Ba/F3 cell line.

Regarding `CN1CCN(C2CCN(c3ccc(Nc4ncc(Br)c(Nc5cc6c(cc5NS(C)(=O)=O)CCO6)n4)cc3F)CC2)CC1` [Example 244, N-(6-((5-bromo-2-((3-fluoro-4-(4-(4-methylpiperazin-1-yl)piperidin-1-yl)phenyl)amino)pyrimidin-4-yl)amino)-2,3-dihydrobenzofuran-5-yl)methanesulfonamide], the GI50 in test [1] lay within 0.025 to 0.1 µM; in test [2], 0.025 to 0.1 µM; in test [3] it was 0.001 to 0.025 µM; in test [4] it was 0.001 to 0.025 µM; in test [5] it was 0.001 to 0.025 µM; in the test with parental Ba/F3 cell line, 0.1 to 0.5 µM.

Consider `COc1cc(N2CCC(N3CCC(C(F)(F)F)CC3)CC2)c(C)cc1Nc1ncc(Br)c(Nc2cc3c(cc2NS(C)(=O)=O)CCO3)n1` [Example 245, N-(6-((5-bromo-2-((2-methoxy-5-methyl-4-(4-(trifluoromethyl)-[1,4′-bipiperidin]-1′-yl)phenyl)amino)pyrimidin-4-yl)amino)-2,3-dihydrobenzofuran-5-yl)methanesulfonamide], for which the GI50 lay within 2 to 10 µM in test [1]; 0.025 to 0.1 µM in test [2]; 0.001 to 0.025 µM in test [3]; 0.1 to 0.5 µM in test [4]; 0.001 to 0.025 µM in test [5]; 2 to 10 µM with parental Ba/F3 cell line.

As for `CN1CCN(C2CCN(c3ccc(Nc4ncc(Br)c(Nc5cc6c(cc5NS(C)(=O)=O)CCO6)n4)c(Cl)c3)CC2)CC1` [Example 246], the GI50 is 0.5 to 2 µM in test [1]; 0.1 to 0.5 µM in test [2]; 0.001 to 0.025 µM in test [3]; 0.1 to 0.5 µM in test [4]; 0.001 to 0.025 µM in test [5]; 2 to 10 µM in the test with parental Ba/F3 cell line.

Regarding `CN1CCN(C2CCN(c3ccc4cc(Nc5ncc(Br)c(Nc6cc7c(cc6NS(C)(=O)=O)CCO7)n5)ccc4n3)CC2)CC1` [Example 247, N-(6-((5-bromo-2-((2-(4-(4-methylpiperazin-1-yl)piperidin-1-yl)quinolin-6-yl)amino)pyrimidin-4-yl)amino)-2,3-dihydrobenzofuran-5-yl)methanesulfonamide], the GI50 in test [1] was 0.5 to 2 µM; in test [2], 0.1 to 0.5 µM; in test [3], 0.1 to 0.5 µM; in test [4], 0.025 to 0.1 µM; in test [5], 0.1 to 0.5 µM; in the test with parental Ba/F3 cell line, 2 to 10 µM.

Turning to `COc1cc(N2CCC(N3CCN(C)CC3)CC2)c(C)cc1Nc1ncc(Cl)c(Nc2cc3c(cc2N(C)S(C)(=O)=O)CCO3)n1` [Example 248, N-(6-((5-chloro-2-((2-methoxy-5-methyl-4-(4-(4-methylpiperazin-1-yl)piperidin-1-yl)phenyl)amino)pyrimidin-4-yl)amino)-2,3-dihydrobenzofuran-5-yl)-N-methylmethanesulfonamide], the GI50 in test [1] was in the range of 0.1 to 0.5 µM; in test [2] it was 0.025 to 0.1 µM; in test [3] it was 0.001 to 0.025 µM; in test [4] it was 0.001 to 0.025 µM; in test [5] it was 0.001 to 0.025 µM; in the test on parental Ba/F3 cell line, 2 to 10 µM.

For `COc1cc(N2CCC(N3CCN(C)CC3)CC2)c(Cl)cc1Nc1ncc(Cl)c(Nc2cc3c(cc2N(C)S(C)(=O)=O)CCO3)n1` [Example 249, N-(6-((5-chloro-2-((5-chloro-2-methoxy-4-(4-(4-methylpiperazin-1-yl)piperidin-1-yl)phenyl)amino)pyrimidin-4-yl)amino)-2,3-dihydrobenzofuran-5-yl)-N-methylmethanesulfonamide], the GI50 in test [1] was 0.1 to 0.5 µM; in test [2] it was 0.025 to 0.1 µM; in test [3], 0.001 to 0.025 µM; in test [4], 0.001 to 0.025 µM; in test [5] it was 0.001 to 0.025 µM; in the test with parental Ba/F3 cell line, 2 to 10 µM.
